Experimental data as given in US20090082328A1, “Substituted phenylamino-benzene derivatives useful for treating hyper-proliferative disorders and diseases associated with mitogen extracellular kinase activity” (Bayer Schering Pharma Aktiengesellschaft, priority 2007, published 2009).

How the values were obtained:
MEK1 = target: T1, MEK1 (Homo sapiens, UniProt Q02750); assay: MEK1 Activation Kinase Assay (Cot1, HTRF); assay type: biochemical; conditions: activation of GST-MEK1 by Cot1
T1 construct: purchased Millipore 14-420
T1 sequence (Q02750 whole entry): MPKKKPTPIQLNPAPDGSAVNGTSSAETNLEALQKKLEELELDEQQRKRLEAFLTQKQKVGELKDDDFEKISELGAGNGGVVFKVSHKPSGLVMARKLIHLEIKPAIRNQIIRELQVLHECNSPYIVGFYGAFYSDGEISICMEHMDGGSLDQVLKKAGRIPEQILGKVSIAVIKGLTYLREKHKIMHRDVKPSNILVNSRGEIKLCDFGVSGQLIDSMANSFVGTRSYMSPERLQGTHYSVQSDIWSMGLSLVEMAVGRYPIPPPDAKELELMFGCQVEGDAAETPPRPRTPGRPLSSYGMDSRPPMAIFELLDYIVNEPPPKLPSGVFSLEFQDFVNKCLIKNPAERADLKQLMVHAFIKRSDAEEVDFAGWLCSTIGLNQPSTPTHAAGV
Description: The kinase Cot1 activates MEK1 by phosphorylating its activation loop. The inhibitory activity of compounds of the present invention on this activation of MEK1 was quantified employing the HTRF assay described in the following paragraphs.
As substrate for the kinase reaction the unactive C-terminally His6-tagged GST-MEK1 fusion protein (Millipore cat. no 14-420) was used.
630 (Sigma), 5 mM β-phospho-glycerol] were added and the mixture was incubated for 10 min at 22° C. to allow pre-binding of the test compounds to the GST-MEK1 before the start of the kinase reaction. Then the kinase reaction was started by the addition of 2 μl of a solution of Cot1 in assay buffer and the resulting mixture was incubated for a reaction time of 20 min at 22° C. The concentration of Cot1 in the assay was adjusted depending of the activity of the enzyme lot and was chosen appropriate to have the assay in the linear range, typical enzyme concentrations were in the range of about 2 ng/μl (final conc. in the 5 μl assay volume). […] The resulting mixture was incubated 2 h at 22° C. to allow the binding of the phosphorylated GST-MEK1 to the anti-GST-XL665 and the Eu-cryptate labelled anti-phospho-MEK 1/2 antibody. Subsequently the amount of Ser217/Ser221-phosphorylated substrate was evaluated by measurement of the resonance energy transfer from the Eu-Cryptate-labelled anti-phospho-MEK antibody to the anti-GST-XL665.

[1] = phase I/II clinical trials in humans, literature [19]; cited from earlier work
colon cancer = conditions: oral treatment, mouse models, literature [18]; cited from earlier work

Structure (SMILES)	IC50 (MEK1) [nM]	other results
CN(C)S(=O)(=O)Nc1cccc(Oc2cc(F)cc(Nc3ccc(I)cc3F)c2C#N)c1 [Example 2.1, N′-[3-[2-cyano-5-fluoro-3-[(2-fluoro-4-iodophenyl)amino]phenoxy]phenyl]-N,N-dimethyl-sulfamide]	< 1000	
CN(C)S(=O)(=O)Nc1cccc(Oc2cc(F)cc(Nc3ccc(I)cc3F)c2C(N)=O)c1 [Example 3.2, 2-[3-[[(dimethylamino)sulfonyl]amino]phenoxy]-4-fluoro-6-[(2-fluoro-4-iodophenyl)amino]-benzamide]	< 250	
NC(=O)c1c(Nc2ccc(I)cc2F)cc(F)cc1OCCCN1CCCC1=O [Example 3.3, 4-Fluoro-2-(2-fluoro-4-iodo-phenylamino)-6-[3-(2-oxo-pyrrolidin-1-yl)-propoxy]-benzamide]	< 250	
NC(=O)c1c(Nc2ccc(I)cc2F)cc(F)cc1OCCc1cccnc1 [Example 3.5, 4-Fluoro-2-(2-fluoro-4-iodo-phenylamino)-6-(2-pyridin-3-yl-ethoxy)-benzamide]	< 250	
NC(=O)c1c(Nc2ccc(I)cc2F)cc(F)cc1OC[C@H](O)[C@@H](O)CO [Example 3.8, 4-Fluoro-2-(2-fluoro-4-iodo-phenylamino)-6-((2S,3S)-2,3,4-trihydroxy-butoxy)-benzamide]	< 250	
NC(=O)c1c(Nc2ccc(I)cc2F)cc(F)cc1Oc1cccc(N)c1 [Example 4.1, 2-(3-Amino-phenoxy)-4-fluoro-6-(2-fluoro-4-iodo-phenylamino)-benz-amide]	< 250	
NC(=O)c1c(Nc2ccc(I)cc2F)cc(F)cc1OCCC1CCCCN1 (stereo not shown) [Example 4.5, 4-Fluoro-2-(2-fluoro-4-iodo-phenylamino)-6-(2-piperidin-2-yl-ethoxy)-benzamide]	< 250	
NC(=O)c1c(Nc2ccc(I)cc2F)cc(F)cc1OCC1CNC1 [Example 4.6, 2-(Azeitidn-3-ylmethoxy)-4-fluoro-6-(2-fluoro-4-iodo-phenylamino)-benzamide]	< 250	
NC(=O)c1c(Nc2ccc(I)cc2F)cc(F)cc1Oc1ccc2c(c1)S(=O)(=O)CO2 [Example 5.1, 2-(3,3-Dioxo-2,3-dihydro-3λ^6-benzo[1,3]oxathiol-5-yloxy)-4-fluoro-6-(2-fluoro-4-iodo-phenylamino)-benzamide]	< 1000	
NC(=O)c1c(Nc2ccc(I)cc2F)cc(F)cc1Oc1ccccc1 [Example 5.2, 4-Fluoro-2-(2-fluoro-4-iodo-phenylamino)-6-phenoxy-benzamide]	< 250	
CS(=O)(=O)Nc1cccc(Oc2cc(F)cc(Nc3ccc(I)cc3F)c2C(N)=O)c1 [Example 6.1a, 4-Fluoro-2-(2-fluoro-4-iodo-phenylamino)-6-(3-methanesulfonylamino-phenoxy)-benzamide]	< 250	
CCCNS(=O)(=O)Nc1cccc(Oc2cc(F)cc(Nc3ccc(I)cc3F)c2C(N)=O)c1 [Example 6.3, 2-[3-[[(propylamino)sulfonyl]amino]phenoxy]-4-fluoro-6-[(2-fluoro-4-iodophenyl)amino]-benzamide]	< 250	
NC(=O)c1c(Nc2ccc(I)cc2F)cc(F)cc1Oc1cccc(N2CCCS2(=O)=O)c1 [Example 6.6, 2-[3-(1,1-Dioxo-1λ^6-isothiazolidin-2-yl)-phenoxy]-4-fluoro-6-(2-fluoro-4-iodo-phenylamino)-benzamide]	< 250	
NC(=O)c1c(Nc2ccc(I)cc2F)cc(F)cc1Oc1cccc(NS(N)(=O)=O)c1 [Example 6.7, 2-[3-[[(amino)sulfonyl]amino]phenoxy]-4-fluoro-6-[(2-fluoro-4-iodophenyl)amino]-benzamide]	< 250	
NC(=O)c1c(Nc2ccc(I)cc2F)cc(F)cc1OCCCNS(=O)(=O)c1ccccc1 [Example 6.11, 2-(3-Benzene-sulfonylamino-propoxy)-4-fluoro-6-(2-fluoro-4-iodo-phenylamino)-benzamide]	< 250	
CS(=O)(=O)N1CCCC(COc2cc(F)cc(Nc3ccc(I)cc3F)c2C(N)=O)C1 (stereo not shown) [Example 6.15, 4-Fluoro-2-(2-fluoro-4-iodo-phenylamino)-6-(1-methanesulfonyl-piperidin-3-ylmethoxy)-benzamide]	< 1000	
Cn1cnc(S(=O)(=O)NCCCOc2cc(F)cc(Nc3ccc(I)cc3F)c2C(N)=O)c1 [Example 6.17, 4-Fluoro-2-(2-fluoro-4-iodo-phenylamino)-6-[3-(1-methyl-1H-imidazole-4-sulfonylamino)-propoxy]-benzamide]	< 250	
CS(=O)(=O)N1CCCCC1CCOc1cc(F)cc(Nc2ccc(I)cc2F)c1C(N)=O (stereo not shown) [Example 6.22, 4-Fluoro-2-(2-fluoro-4-iodo-phenylamino)-6-[2-(1-methanesulfonyl-piperidin-2-yl)-ethoxy]-benzamide]	< 1000	
CC(C)(O)C(O)CCOc1cc(F)cc(Nc2ccc(I)cc2F)c1C(N)=O (stereo not shown) [Example 7.1, 2-(3,4-Dihydroxy-4-methyl-pentyloxy)-4-fluoro-6-(2-fluoro-4-iodo-phe-nylamino)-benzamide]	< 250	
NC(=O)c1c(Nc2ccc(I)cc2F)cc(F)cc1O[C@@H]1C[C@@H](O)[C@@H](O)C1 [Example 7.7]	< 250	
NC(=O)c1c(Nc2ccc(Br)cc2F)cc(F)cc1OCC[C@@H](O)CO [Example 8.4, 2-(4-Bromo-2-fluoro-phenylamino)-6-((R)-3,4-dihydroxy-butoxy)-4-fluoro-benzamide]	< 1000	
NC(=O)c1c(Nc2ccc(I)cc2)cc(F)cc1OCC[C@@H](O)CO [Example 8.5, 2-((R)-3,4-Dihydroxy-butoxy)-4-fluoro-6-(4-iodo-phenylamino)-benzamide]	< 1000	
C#Cc1ccc(Nc2cc(F)cc(OCC[C@@H](O)CO)c2C(N)=O)c(F)c1 [Example 9.1, 2-((R)-3,4-Dihydroxy-butoxy)-6-(4-ethynyl-2-fluoro-phenylamino)-4-fluoro-benzamide]	< 1000	
C#Cc1ccc(Nc2cc(F)cc(Oc3cccc(NS(=O)(=O)N(C)C)c3)c2C(N)=O)c(F)c1 [Example 9.4, 2-[3-[[(dimethylamino)sulfonyl]amino]phenyoxy]-4-fluoro-6-[(4-ethynyl-2-fluorophenyl)amino]-benzamide]	< 250	
C#Cc1ccc(Nc2cc(F)cc(Oc3cccc(NS(=O)(=O)NCCC)c3)c2C(N)=O)c(F)c1 [Example 9.5, 2-[3-[[(propylamino)sulfonyl]amino]phenyoxy]-4-fluoro-6-[(4-ethynyl-2-fluorophenyl)amino]-benzamide]	< 250	
NC[C@H](O)CCOc1cc(F)cc(Nc2ccc(I)cc2F)c1C(N)=O [Example 10.3, 2-((R)-4-Amino-3-hydroxy-butoxy)-4-fluoro-6-(2-fluoro-4-iodo-phenylamino)-benzamide]	< 250	
NC(=O)c1c(Nc2ccc(I)cc2F)cc(F)cc1OCC[C@@H](O)CN1CCOCC1 [Example 10.6, 4-Fluoro-2-(2-fluoro-4-iodo-phenylamino)-6-((R)-3-hydroxy-4-morpholin-4-yl-butoxy)-benzamide]	< 250	
NC(=O)c1c(Nc2ccc(I)cc2F)cc(Cl)cc1OCC[C@@H](O)CO [Example 11.3, 4-Chloro-2-((R)-3,4-dihydroxy-butoxy)-6-(2-fluoro-4-iodo-phenylamino)-benzamide]	< 1000	
CNC(=O)c1c(Nc2ccc(I)cc2F)cc(F)cc1OCC[C@@H](O)CO [Example 12.8, 2-((R)-3,4-Dihydroxy-butoxy)-4-fluoro-6-(2-fluoro-4-iodo-phenylamino)-N-methyl-benzamide]	< 250	
O=C(NOCC1CC1)c1ccc(F)c(F)c1Nc1ccc(I)cc1Cl [PD184352]		clinical efficacy [1]: insufficient efficacy; colon cancer growth in vivo (colon cancer): inhibit colon cancer growth
